Experiments:
wheat = assay: Test B pre/postemergence wheat; format: in vivo, Triticum aestivum
In short: (§1)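 Test chemicals in a non-phytotoxic solvent mixture with surfactant were sprayed preemergence onto planted seeds and postemergence onto plants 2 to 18 cm tall (1- to 4-leaf stage). After twelve to sixteen days in a greenhouse, injury was visually rated against untreated controls from 0 (no effect) to 10 (complete control).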

blackgrass = assay: Test B pre/postemergence blackgrass; format: in vivo, Alopecurus myosuroides
In short: as §1

velvetleaf = assay: Test B pre/postemergence velvetleaf; format: in vivo, Abutilon theophrasti
In short: as §1

rape = assay: Test B pre/postemergence rape; format: in vivo, Brassica napus
In short: as §1

soybean = assay: Test B pre/postemergence soybean; format: in vivo, Glycine max
In short: as §1

cocklebur = assay: Test B pre/postemergence cocklebur; format: in vivo, Xanthium strumarium
In short: as §1

smallflower flatsedge = assay: Test B flood test smallflower flatsedge; format: in vivo, Cyperus difformis
In short: (§2)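 Each value is a visual injury score relative to controls, with 10 meaning complete control and 0 no effect. Evaluation took place twelve to sixteen days after the 2-leaf-stage plants were treated and kept in the greenhouse.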

corn = assay: Test B pre/postemergence corn; format: in vivo, Zea mays
In short: as §1

crabgrass = assay: Test B pre/postemergence crabgrass; format: in vivo, Digitaria sanguinalis
In short: as §1

duck salad = assay: Test B flood test duck salad; format: in vivo, Heteranthera limosa
In short: as §2

bedstraw = assay: Test B pre/postemergence bedstraw; format: in vivo, Galium aparine
In short: as §1

rice = assay: Test B flood test rice; format: in vivo, Oryza sativa
In short: as §2

purple nutsedge = assay: Test B pre/postemergence purple nutsedge; format: in vivo, Cyperus rotundus
In short: as §1

bamyardgrass = assay: Test B flood test barnyardgrass; format: in vivo, Echinochloa crus-galli
In short: as §2

sugar beet = assay: Test B pre/postemergence sugar beet; format: in vivo, Beta vulgaris
In short: as §1

giant foxtail = assay: Test B pre/postemergence giant foxtail; format: in vivo, Setaria faberii
In short: as §1

surinam grass = assay: Test B pre/postemergence surinam grass; format: in vivo, Brachiaria decumbens
In short: as §1

[1] = Preemergence, Rate 62 g/ha, scale 0 to 10 (0 no effect, 10 complete control)
[2] = Preemergence, Rate 125 g/ha, 0 is no effect, 10 is complete control
[3] = Preemergence, Rate 250 g/ha, scale 0 to 10, 0 is no effect, 10 is complete control
[4] = Preemergence, Rate 500 g/ha, scale 0 to 10 (0 no effect, 10 complete control)
[5] = Rate 62 g/ha, Postemergence, scale of 0 to 10 where 0 is no effect and 10 is complete control
[6] = Rate 250 g/ha, Postemergence, scale 0 to 10, 0 is no effect, 10 is complete control
[7] = Rate 500 g/ha, Postemergence, scale 0 to 10
[8] = Postemergence, Rate 125 g/ha, scale of 0 to 10 where 0 is no effect and 10 is complete control
[9] = Postemergence (flood test species), Rate 125 g/ha, scale of 0 to 10 where 0 is no effect and 10 is complete control
[10] = Rate 62 g/ha, Postemergence section, flood test species, scale of 0 to 10 where 0 is no effect and 10 is complete control
[11] = Rate 250 g/ha, Postemergence (flood test), scale 0 to 10, 0 is no effect, 10 is complete control
[12] = Rate 500 g/ha, listed under Postemergence (flood test species), scale 0 to 10

CCN(CC)C(=O)n1oc(=O)n(Cc2ccccc2)c1=O [Compound 152]
0: Wheat plant response rating (wheat; [1]) | Wheat plant response rating (0 to 10 scale) (wheat; [2]) | Wheat plant response rating (wheat; [3]) | Wheat plant response rating (wheat; [4]) | Wheat plant response rating (wheat; [5]) | Plant response rating, Wheat (wheat; [6]) | Wheat plant response rating (wheat; [7]) | Blackgrass plant response rating (blackgrass; [8]) | Blackgrass plant response rating (blackgrass; [1]) | Blackgrass plant response rating (0 to 10 scale) (blackgrass; [2]) | Blackgrass plant response rating (blackgrass; [3]) | Blackgrass plant response rating (blackgrass; [5]) | Plant response rating, Blackgrass (blackgrass; [6]) | Velvetleaf plant response rating (velvetleaf; [1]) | Velvetleaf plant response rating (0 to 10 scale) (velvetleaf; [2]) | Velvetleaf plant response rating (velvetleaf; [3]) | Velvetleaf plant response rating (velvetleaf; [4]) | Velvetleaf plant response rating (velvetleaf; [5]) | Plant response rating, Velvetleaf (velvetleaf; [6]) | Velvetleaf plant response rating (velvetleaf; [7]) | Rape plant response rating (rape; [8]) | Rape plant response rating (rape; [1]) | Rape plant response rating (0 to 10 scale) (rape; [2]) | Rape plant response rating (rape; [3]) | Rape plant response rating (rape; [4]) | Rape plant response rating (rape; [5]) | Plant response rating, Rape (rape; [6]) | Rape plant response rating (rape; [7]) | Soybean plant response rating (soybean; [8]) | Soybean plant response rating (soybean; [1]) | Soybean plant response rating (0 to 10 scale) (soybean; [2]) | Soybean plant response rating (soybean; [3]) | Soybean plant response rating (soybean; [4]) | Soybean plant response rating (soybean; [5]) | Cocklebur plant response rating (cocklebur; [8]) | Cocklebur plant response rating (cocklebur; [1]) | Cocklebur plant response rating (0 to 10 scale) (cocklebur; [2]) | Cocklebur plant response rating (cocklebur; [3]) | Cocklebur plant response rating (cocklebur; [4]) | Cocklebur plant response rating (cocklebur; [5]) | Plant response rating, Cocklebur (cocklebur; [6]) | Cocklebur plant response rating (cocklebur; [7]) | S. Flatsedge plant response rating (smallflower flatsedge; [9]) | S. Flatsedge plant response rating (smallflower flatsedge; [10]) | Plant response rating, S. Flatsedge (smallflower flatsedge; [11]) | S. Flatsedge plant response rating (smallflower flatsedge; [12]) | Corn plant response rating (corn; [8]) | Corn plant response rating (corn; [1]) | Corn plant response rating (0 to 10 scale) (corn; [2]) | Corn plant response rating (corn; [3]) | Corn plant response rating (corn; [4]) | Corn plant response rating (corn; [5]) | Plant response rating, Corn (corn; [6]) | Corn plant response rating (corn; [7]) | Crabgrass plant response rating (crabgrass; [8]) | Crabgrass plant response rating (crabgrass; [1]) | Crabgrass plant response rating (0 to 10 scale) (crabgrass; [2]) | Crabgrass plant response rating (crabgrass; [5]) | Ducksalad plant response rating (duck salad; [9]) | Ducksalad plant response rating (duck salad; [10]) | Plant response rating, Ducksalad (duck salad; [11]) | Ducksalad plant response rating (duck salad; [12]) | Bedstraw plant response rating (bedstraw; [8]) | Bedstraw plant response rating (bedstraw; [1]) | Bedstraw plant response rating (0 to 10 scale) (bedstraw; [2]) | Bedstraw plant response rating (bedstraw; [3]) | Bedstraw plant response rating (bedstraw; [4]) | Bedstraw plant response rating (bedstraw; [5]) | Plant response rating, Bedstraw (bedstraw; [6]) | Bedstraw plant response rating (bedstraw; Rate 500 g/ha, Postemergence, scale 0 to 10, 0 no effect, 10 complete control) | Rice plant response rating (rice; [9]) | Rice plant response rating (rice; [10]) | Plant response rating, Rice (rice; [11]) | Rice plant response rating (rice; [12]) | Nutsedge plant response rating (purple nutsedge; [8]) | Nutsedge plant response rating (purple nutsedge; [1]) | Nutsedge plant response rating (0 to 10 scale) (purple nutsedge; [2]) | Nutsedge plant response rating (purple nutsedge; [3]) | Nutsedge plant response rating (purple nutsedge; [4]) | Nutsedge plant response rating (purple nutsedge; [5]) | Plant response rating, Nutsedge (purple nutsedge; [6]) | Nutsedge plant response rating (purple nutsedge; [7]) | Barnyardgrass plant response rating (bamyardgrass; [9]) | Barnyardgrass plant response rating (bamyardgrass; [10]) | Plant response rating, Barnyardgrass (bamyardgrass; [11]) | Barnyardgrass plant response rating (bamyardgrass; Rate 500 g/ha, listed under Postemergence (flood test species), scale 0 to 10, 0 no effect, 10 complete control) | Sugarbeets plant response rating (sugar beet; [8]) | Sugarbeets plant response rating (sugar beet; [1]) | Sugarbeets plant response rating (0 to 10 scale) (sugar beet; [2]) | Sugarbeets plant response rating (sugar beet; [3]) | Sugarbeets plant response rating (sugar beet; [4]) | Sugarbeets plant response rating (sugar beet; [5]) | Plant response rating, Sugarbeets (sugar beet; [6]) | Sugarbeets plant response rating (sugar beet; [7]) | Giant foxtail plant response rating (giant foxtail; [8]) | Giant foxtail plant response rating (giant foxtail; [1]) | Giant foxtail plant response rating (0 to 10 scale) (giant foxtail; [2]) | Giant foxtail plant response rating (giant foxtail; [5]) | Plant response rating, Giant foxtail (giant foxtail; [6]) | B. signalgrass plant response rating (surinam grass; [8]) | B. signalgrass plant response rating (surinam grass; [1]) | B. signalgrass plant response rating (surinam grass; [5]) | Plant response rating, B. signalgrass (surinam grass; [6]) | B. signalgrass plant response rating (surinam grass; Rate 500 g/ha, Postemergence, scale of 0 to 10 where 0 is no effect and 10 is complete control)
4: B. signalgrass plant response rating (0 to 10 scale) (surinam grass; [2]) | B. signalgrass plant response rating (surinam grass; [3])
2: Blackgrass plant response rating (blackgrass; [7]) | Plant response rating, Crabgrass (crabgrass; [6])
1: Plant response rating, Soybean (soybean; [6]) | Soybean plant response rating (soybean; [7]) | Crabgrass plant response rating (crabgrass; [3])
6: B. signalgrass plant response rating (surinam grass; [4])
5: Giant foxtail plant response rating (giant foxtail; [4])
3: Blackgrass plant response rating (blackgrass; [4]) | Crabgrass plant response rating (crabgrass; [4]) | Crabgrass plant response rating (crabgrass; [7]) | Giant foxtail plant response rating (giant foxtail; [3]) | Giant foxtail plant response rating (giant foxtail; [7])
